Experimental data taken from US20250129430A1, “HIGH ATP-AFFINITY PROTEIN AS THERAPEUTIC TARGET FOR INTRACTABLE CANCER MOLECULAR SUBTYPES AND INHIBITOR THEREOF” (VeraVerse Co., Ltd., priority 2021, published 2025).
Structures can show the parent of a compound that is named as a salt.

How the values were obtained:
Type in all cases: cell-based, human
FU97 = assay: Cell viability drug screen, 12-point dose-response AUC; design: Average Area Under the Viability Curve (AUC), AUC norm value: scale not given here; conditions: FU97 cells, 72 hours; for area under the viability curve (AUC), normalized: 12-point dose-response
Summary of the method: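 Trapezoidal AUC of a 12-point, DMSO-normalized dose-response curve. Luminescent viability was measured after 72 h of exposure at 37° C to half-log serial dilutions (0.5% DMSO control), dosed 24 h after plating FU97 cells at 5×10^3 per well.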

[1] = system: non-SEM-type gastric cancer cell line; assay: Cell viability drug screen, AUC summary over non-SEM-type lines; conditions: in the non-SEM-type gastric cancer cell line
SNU668 = assay: Cell viability drug screen, 12-point dose-response AUC; conditions: 72 hours; for area under the viability curve (AUC), normalized: SNU668 cells, 12-point dose-response
Summary of the method: (§1)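 Each cell line receives a twelve-point half-log titration of drug beginning 24 h after plating 5×10^3 cells per well. Following 72 h culture at 37 °C, luminescent signal is recorded and expressed versus vehicle. AUC is derived by the trapezoidal method.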

NCC59 = assay: as above; conditions: NCC59 cells, 72 hours; for area under the viability curve (AUC), normalized: 12-point dose-response
Summary of the method: as §1

SNU484 = assay: as above; conditions: 72 hours; for area under the viability curve (AUC), normalized: SNU484 cells, 12-point dose-response
Summary of the method: as §1

NCC20 = assay: as above; conditions: NCC20 cells, 72 hours; for area under the viability curve (AUC), normalized: 12-point dose-response
Summary of the method: as §1

NCI_N87 = assay: as above; conditions: NCI_N87 cells, 72 hours; for area under the viability curve (AUC), normalized: 12-point dose-response
Summary of the method: as §1

SNU216 = assay: as above; conditions: 72 hours; for area under the viability curve (AUC), normalized: SNU216 cells, 12-point dose-response
Summary of the method: as §1

MKN28 = assay: as above; conditions: MKN28 cells, 72 hours; for area under the viability curve (AUC), normalized: 12-point dose-response
Summary of the method: as §1

AGS = assay: as above; conditions: 72 hours; for area under the viability curve (AUC), normalized: AGS cells, 12-point dose-response
Summary of the method: as §1

NCC19 = assay: as above; conditions: NCC19 cells, 72 hours; for area under the viability curve (AUC), normalized: 12-point dose-response
Summary of the method: as §1

MKN45 = assay: as above; conditions: 72 hours; for area under the viability curve (AUC), normalized: MKN45 cells, 12-point dose-response
Summary of the method: as §1

SNU1 = assay: as above; conditions: SNU1 cells, 72 hours; for area under the viability curve (AUC), normalized: 12-point dose-response
Summary of the method: as §1

SNU16 = assay: as above; conditions: SNU16 cells, 72 hours; for area under the viability curve (AUC), normalized: 12-point dose-response
Summary of the method: as §1

OCUM1 = assay: as above; conditions: OCUM1 cells, 72 hours; for area under the viability curve (AUC), normalized: 12-point dose-response
Summary of the method: as §1

Hs746T = assay: as above; conditions: 72 hours; for area under the viability curve (AUC), normalized: Hs746T cells, 12-point dose-response
Summary of the method: as §1

SNU1967 = assay: as above; conditions: SNU1967 cells, 72 hours; for area under the viability curve (AUC), normalized: 12-point dose-response
Summary of the method: as §1

MKN74 = assay: as above; conditions: MKN74 cells, 72 hours; for area under the viability curve (AUC), normalized: 12-point dose-response
Summary of the method: as §1

SNU719 = assay: as above; conditions: SNU719 cells, 72 hours; for area under the viability curve (AUC), normalized: 12-point dose-response
Summary of the method: as §1

YCC3 = assay: as above; conditions: YCC3 cells, 72 hours; for area under the viability curve (AUC), normalized: 12-point dose-response
Summary of the method: as §1

KATO3 = assay: as above; conditions: KATO3 cells, 72 hours; for area under the viability curve (AUC), normalized: 12-point dose-response
Summary of the method: as §1

YCC11 = assay: as above; conditions: 72 hours; for area under the viability curve (AUC), normalized: YCC11 cells, 12-point dose-response
Summary of the method: as §1

YCC2 = assay: as above; conditions: YCC2 cells, 72 hours; for area under the viability curve (AUC), normalized: 12-point dose-response
Summary of the method: as §1

SNU638 = assay: as above; conditions: SNU638 cells, 72 hours; for area under the viability curve (AUC), normalized: 12-point dose-response
Summary of the method: as §1

SNU601 = assay: as above; conditions: SNU601 cells, 72 hours; for area under the viability curve (AUC), normalized: 12-point dose-response
Summary of the method: as §1

SNU620 = assay: as above; conditions: SNU620 cells, 72 hours; for area under the viability curve (AUC), normalized: 12-point dose-response
Summary of the method: as §1

NCC24 = assay: as above; conditions: NCC24 cells, 72 hours; for area under the viability curve (AUC), normalized: 12-point dose-response
Summary of the method: as §1

MKN1 = assay: as above; conditions: MKN1 cells, 72 hours; for area under the viability curve (AUC), normalized: 12-point dose-response
Summary of the method: as §1

SNU1750 = assay: as above; conditions: 72 hours; for area under the viability curve (AUC), normalized: SNU1750 cells, 12-point dose-response
Summary of the method: as §1

SK4 = assay: as above; conditions: 72 hours; for area under the viability curve (AUC), normalized: SK4 cells, 12-point dose-response
Summary of the method: as §1

Nc1cc(C(F)(F)F)c(-c2cc(N3CCOCC3)nc(N3CCOCC3)n2)cn1 [BKM120]
area under the viability curve (AUC), normalized (FU97): −1.3007
AUC value [1]: high
area under the viability curve (AUC), normalized (SNU668): 0.2688
area under the viability curve (AUC), normalized (NCC59): 1.23
area under the viability curve (AUC), normalized (SNU484): −0.475
area under the viability curve (AUC), normalized (NCC20): −0.07502
area under the viability curve (AUC), normalized (NCI_N87): −0.38
area under the viability curve (AUC), normalized (SNU216): 0.1342
area under the viability curve (AUC), normalized (MKN28): −0.0925
area under the viability curve (AUC), normalized (AGS): −1.094
area under the viability curve (AUC), normalized (NCC19): 0.6866
area under the viability curve (AUC), normalized (MKN45): 1.074
area under the viability curve (AUC), normalized (SNU1): 0.2556
area under the viability curve (AUC), normalized (SNU16): −0.3076
area under the viability curve (AUC), normalized (OCUM1): 0.7561
area under the viability curve (AUC), normalized (Hs746T): 0
area under the viability curve (AUC), normalized (SNU1967): 0.676
area under the viability curve (AUC), normalized (MKN74): −0.05182
area under the viability curve (AUC), normalized (SNU719): 3.314
area under the viability curve (AUC), normalized (YCC3): 1.085
area under the viability curve (AUC), normalized (KATO3): 2.449
area under the viability curve (AUC), normalized (YCC11): −1.147
area under the viability curve (AUC), normalized (YCC2): 0.7169
area under the viability curve (AUC), normalized (SNU638): 0.01503
area under the viability curve (AUC), normalized (SNU601): 0.9711
area under the viability curve (AUC), normalized (SNU620): −0.08823
area under the viability curve (AUC), normalized (NCC24): −0.4391
area under the viability curve (AUC), normalized (MKN1): −0.1827
area under the viability curve (AUC), normalized (SNU1750): −0.4392
area under the viability curve (AUC), normalized (SK4): −1.247

CN(C)c1ccc(C(=C2C=CC(=[N+](C)C)C=C2)c2ccc(N(C)C)cc2)cc1 [Crystal Violet, Crystal violet]
area under the viability curve (AUC), normalized (FU97): −0.985
AUC value [1]: high
area under the viability curve (AUC), normalized (SNU668): 0.1937
area under the viability curve (AUC), normalized (NCC59): 0.5098
area under the viability curve (AUC), normalized (SNU484): −0.7108
area under the viability curve (AUC), normalized (NCC20): −1.031
area under the viability curve (AUC), normalized (NCI_N87): 0.4907
area under the viability curve (AUC), normalized (SNU216): −0.02818
area under the viability curve (AUC), normalized (MKN28): 0
area under the viability curve (AUC), normalized (AGS): −0.4769
area under the viability curve (AUC), normalized (NCC19): 0.4873
area under the viability curve (AUC), normalized (MKN45): 1.101
area under the viability curve (AUC), normalized (SNU1): −0.5355
area under the viability curve (AUC), normalized (SNU16): −0.5668
area under the viability curve (AUC), normalized (OCUM1): 0.7741
area under the viability curve (AUC), normalized (Hs746T): −0.2085
area under the viability curve (AUC), normalized (SNU1967): 0.3458
area under the viability curve (AUC), normalized (MKN74): −0.5721
area under the viability curve (AUC), normalized (SNU719): 3.076
area under the viability curve (AUC), normalized (YCC3): 0.9437
area under the viability curve (AUC), normalized (KATO3): 0.911
area under the viability curve (AUC), normalized (YCC11): −0.8996
area under the viability curve (AUC), normalized (YCC2): 0.4289
area under the viability curve (AUC), normalized (SNU638): −0.4956
area under the viability curve (AUC), normalized (SNU601): 0.9442
area under the viability curve (AUC), normalized (SNU620): −0.7672
area under the viability curve (AUC), normalized (NCC24): 0.2743
area under the viability curve (AUC), normalized (MKN1): 0.4211
area under the viability curve (AUC), normalized (SNU1750): −0.5514
area under the viability curve (AUC), normalized (SK4): −1.015

CCCCc1oc2ccc(NS(C)(=O)=O)cc2c1C(=O)c1ccc(OCCCN(CCCC)CCCC)cc1 [Dronedarone HCl (Multaq), Dronedarone HCl]
Average Area Under the Viability Curve (AUC), AUC norm value (FU97): 0.3807
AUC value [1]: high
Average Area Under the Viability Curve (AUC), AUC norm value (SNU668; SNU668 cells (SEM subtype)): 0.4123
Average Area Under the Viability Curve (AUC), AUC norm value (NCC59): 0.6769
Average Area Under the Viability Curve (AUC), AUC norm value (SNU484; SNU484 cells (SEM subtype)): −0.2497
Average Area Under the Viability Curve (AUC), AUC norm value (NCC20): −0.2985
Average Area Under the Viability Curve (AUC), AUC norm value (NCI_N87): −0.08952
Average Area Under the Viability Curve (AUC), AUC norm value (SNU216; SNU216 cells (non-SEM subtype)): 0.08211
Average Area Under the Viability Curve (AUC), AUC norm value (MKN28): −0.1927
Average Area Under the Viability Curve (AUC), AUC norm value (AGS; AGS cells (non-SEM subtype)): −0.6415
Average Area Under the Viability Curve (AUC), AUC norm value (NCC19): −0.3711
Average Area Under the Viability Curve (AUC), AUC norm value (MKN45; MKN45 cells (non-SEM subtype)): 0.6772
Average Area Under the Viability Curve (AUC), AUC norm value (SNU1): 1.295
Average Area Under the Viability Curve (AUC), AUC norm value (SNU16): −0.2149
Average Area Under the Viability Curve (AUC), AUC norm value (OCUM1): 0.02571
Average Area Under the Viability Curve (AUC), AUC norm value (Hs746T; Hs746T cells (SEM subtype)): −0.03562
Average Area Under the Viability Curve (AUC), AUC norm value (SNU1967): 0.1919
Average Area Under the Viability Curve (AUC), AUC norm value (MKN74): −1.381
Average Area Under the Viability Curve (AUC), AUC norm value (SNU719): 1.291
Average Area Under the Viability Curve (AUC), AUC norm value (YCC3): 0.8816
Average Area Under the Viability Curve (AUC), AUC norm value (KATO3): 0.1721
Average Area Under the Viability Curve (AUC), AUC norm value (YCC11; YCC11 cells (SEM subtype)): −0.521
Average Area Under the Viability Curve (AUC), AUC norm value (YCC2): −0.08246
Average Area Under the Viability Curve (AUC), AUC norm value (SNU638): −0.5649
Average Area Under the Viability Curve (AUC), AUC norm value (SNU601): 3.848
Average Area Under the Viability Curve (AUC), AUC norm value (SNU620): −0.3353
Average Area Under the Viability Curve (AUC), AUC norm value (NCC24): 1.044
Average Area Under the Viability Curve (AUC), AUC norm value (MKN1): 0
Average Area Under the Viability Curve (AUC), AUC norm value (SNU1750; SNU1750 cells (SEM subtype)): 0.06657
Average Area Under the Viability Curve (AUC), AUC norm value (SK4; SK4 cells (SEM subtype)): −0.3488
